Reference: patent publication US20250304576A1 (Cancer Research Technology Limited, priority 2022, published 2025)
pIC50: −log10 of the molar value.

Tests used:
MiaPaca-2 cells = assay: Cell viability, alamarBlue assay, MiaPaca-2 cells; type: cell-based; settings: treatment for 48 hours
Procedure: (§1) PC3, PC3M, LNCaP Al, cells were grown in RPMI 1640 media and PANC1 and MiaPac-2 cells were grown in Dulbecco's Modified Eagle's Media (DMEM) which was supplemented with 10% (v/v) Foetal Calf Serum (FCS) (Charcoal-stripped for LNCaP Als), L-glutamine ([…]) and penicillin/streptomycin (250 units/ml; 100 μg/ml). All cells were incubated in a humidified atmosphere at 37° C. and 5% (v/v) CO2. Cells were cultured as a monolayer in 10 ml media in […] vented flasks and grown until subculture was required.
(§2) Cell viability determination: Cells (1000 cells/100 μl) were plated into 96 well plates and incubated for 24 hours at 37° C. and 5% (v/v) CO2 before being treated with SU1433. After incubation with SU1433 for 48 h, cell viability was measured using the alamarBlue® Assay (Thermofisher, UK). The media was removed and replaced with a 1:10 media to alamar blue solution. After a 1 h incubation at 37° C. and 5% CO2, the fluorescence was measured at 530-560 nm excitation wavelength and 590 nm emission wavelength in a fluorescence plate reader. All treatment were measured in duplicate wells and repeated at least 3 times. The results represent the fractional survival of untreated controls±SD.

PC3M xenografts = assay: In vivo assessment in nude mice bearing PC3M xenografts; settings: once daily i.p. dose of 50 mg/kg, over 21 days
Procedure: Xenografts were established in nude mice by subcutaneous injection of 5×10^6 PC3M-Luc-C6 cells. After 8 days, mice bearing tumours of approximately 60 mm^3 in volume were randomised into 3 treatment groups of 8 mice in each. One group of mice received intraperitoneal injection (i.p.) of 50 mg/kg SU1433 once daily dissolved in a vehicle of 5% (v/v) DMSO, 5% (v/v) solutol HS15 and 15% (w/v) hydroxypropyl-p-cyclodextrin in water for injection (90%) for a total of 21 days. Another group received once daily i.p. injection of the vehicle (100 μL) alone whilst the last group received no treatment. To monitor potential toxicity, body weight was measured daily, and experimental animals were evaluated for signs of distress using standard guidelines. Mice whose xenografts reached 1,900 mm^3 were euthanised. Subcutaneous tumours were measured with calipers immediately before treatment and every 2 or 3 days thereafter. On the assumption of ellipsoidal geometry, diameter measurements were converted to an approximate volume by multiplying half the longest diameter by the square of the mean of the 2 shorter diameters. For every animal, relative tumour volume (volume at any time point divided by volume immediately before treatment) was plotted against time, and the area under the time-volume curves was determined by trapezoidal approximation. […]

PANC1 cells = assay: Cell viability, alamarBlue assay, PANC1 cells; type: cell-based; settings: treatment for 48 hours
Procedure: as §1, §2

PC3M cells = assay: Cell viability, alamarBlue assay, PC3M cells; type: cell-based; settings: treatment for 48 hours
Procedure: as §1, §2

IKBKB (IKKβ) = biological target: T1, IKBKB (IKKβ) (Homo sapiens, UniProt O14920); assay: Z'-LYTE IKKβ assay (Life Technologies); type: biochemical; settings: Life Technologies assay
T1 construct: purchased Life Technologies (assay performed by the vendor)
T1 sequence (O14920 1-756): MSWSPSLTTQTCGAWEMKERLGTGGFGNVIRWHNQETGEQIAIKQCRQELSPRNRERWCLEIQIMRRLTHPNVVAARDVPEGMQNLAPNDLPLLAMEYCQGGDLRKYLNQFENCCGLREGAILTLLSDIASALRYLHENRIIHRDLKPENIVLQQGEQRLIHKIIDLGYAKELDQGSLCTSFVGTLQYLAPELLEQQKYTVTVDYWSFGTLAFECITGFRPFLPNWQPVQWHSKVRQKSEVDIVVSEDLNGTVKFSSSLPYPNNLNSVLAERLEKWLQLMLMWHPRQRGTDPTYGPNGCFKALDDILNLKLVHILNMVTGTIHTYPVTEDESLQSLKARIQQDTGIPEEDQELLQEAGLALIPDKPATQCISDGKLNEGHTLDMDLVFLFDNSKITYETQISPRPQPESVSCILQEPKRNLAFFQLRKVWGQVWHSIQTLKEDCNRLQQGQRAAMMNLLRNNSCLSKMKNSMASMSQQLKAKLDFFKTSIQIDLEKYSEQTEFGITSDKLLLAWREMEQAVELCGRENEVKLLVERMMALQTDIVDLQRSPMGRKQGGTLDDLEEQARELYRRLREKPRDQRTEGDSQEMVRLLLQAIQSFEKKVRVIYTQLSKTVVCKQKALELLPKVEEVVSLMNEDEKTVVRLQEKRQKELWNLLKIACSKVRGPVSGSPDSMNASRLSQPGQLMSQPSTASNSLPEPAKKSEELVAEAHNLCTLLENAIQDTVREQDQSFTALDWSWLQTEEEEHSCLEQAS
Procedure: IKKα and IKKβ inhibitory activity was determined using three different assays: a dissociation enhanced ligand fluorescent immunoassay (DELFIA) based on the protocol of HTScan™ IKKβ Kinase Assay (Cell Signaling Technology, USA); an Adapta IKKα assay (performed by Life Technologies); a Z′-LYTE™ IKKβ assay (performed by Life Technologies).
The reaction was performed in low volume NBS, black 384-well plates (Corning model 4514).
The test compounds were screened in 1% DMSO (final) in the well. For 10 point titrations, 3-fold serial dilutions were conducted from the starting concentration of 50 mM.
The 2× IKBKB (IKKβ)/Ser/Thr 05 mixture was prepared in 50 mM HEPES pH 7.5, 0.01% BRIJ-35, 10 mM MgCl2, 1 mM EGTA. The final 10 μL Kinase Reaction consisted of 0.62-4 ng IKBKB (IKKβ) and 2 μM Ser/Thr 05 in 50 mM HEPES pH 7.5, 0.01% BRIJ-35, 10 mM MgCl2, 1 mM EGTA.
5 μL of 2× Kinase reaction was incubated with 2.5 μL of ATP solution diluted to a 4× working concentration in Kinase Buffer (50 mM HEPES pH 7.5, 0.01% BRIJ-35, 10 mM MgCl2, 1 mM EGTA) in the presence of […] of 100× test compound in 100% DMSO and 2.4 μL of Kinase buffer.
The resulting kinase reaction was allowed to incubate for 1 hour at room temperature before 5 μL of a 1:64 dilution of Development Reagent B was added and the resulting Development Reaction was incubated for another hour at room temperature. Then the plate was read on a fluorescence plate reader and the data analysed.
A ratiometric method, which calculated the Emission Ratio of donor emission (i.e. coumarin) to acceptor emission (i.e. fluorescein) after excitation of the donor fluorophore at 400 nm, was used to quantitate reaction progress, as shown in the equation below.

LNCaP cells = assay: Cell viability, alamarBlue assay, LNCaP cells; type: cell-based; settings: treatment for 48 hours
Procedure: as §1, §2

CC(C)(C)C#Cc1cc(-c2ccnc(N)c2)cc2c(N)n[nH]c12 [Example 137, 5-(2-Aminopyridin-4-yl)-7-(3,3-dimethylbut-1-yn-1-yl)-1H-indazol-3-amine]
viability of MiaPaca-2 cells (MiaPaca-2 cells): reduced the viability
inhibition of tumour growth (PC3M xenografts): approximately 60%
viability of PANC1 cells (PANC1 cells): reduced the viability
viability of PC3M cells (PC3M cells): reduced the viability
pIC50 (IKBKB (IKKβ)): 5.64
viability of LNCaP cells (LNCaP cells): reduced the viability
